# Measured values published in patent US8513433B2, “Small molecule inhibitors of PARP activity” (Angion Biomedica Corp., priority 2009, dated 2013).
# Columns and labels:
# [1] = system: rat; details: 45 minutes ischemia, up to six hours reperfusion; drug one minute before reperfusion; cited from earlier work
# [2] = target: T1, human PARP-1 (Homo sapiens, UniProt P09874); test: Poly (ADP-Ribose) Polymerase-1 (PARP-1) in vitro enzyme assay (Universal Colorimetric PARP Assay Kit); type: biochemical; details: letter codes; read-out: extent of inhibition of PARP activity (IC50, micromolar)
# T1 construct: purchased Trevigen Inc., Gaithersburg, Md
# Description: Poly (ADP-Ribose) Polymerase-1 (PARP-1) In Vitro Enzyme Assay: Compounds can be screened for inhibitory activity against human PARP-1 in vitro using the Universal Colorimetric PARP Assay Kit (Trevigen Inc., Gaithersburg, Md.) as directed by the supplier. Compounds can be assayed in duplicate in 0.5% DMSO final concentration, negative control is no enzyme, while positive control is DMSO vehicle alone. IC50 determinations can be made using Microsoft Excel. For all cell assays, compounds can be added to cells in 5% DMSO/PBS for a final concentration of 0.5% DMSO.
# [3] = system: rats; details: hemorrhagic shock and resuscitation; cited from earlier work
# [4] = system: mouse; details: mouse arthritis; inflammatory cell infiltration, hyperplasia of the synovium, tissue necrosis; cited from earlier work
# [5] = system: Mice; details: eleven minutes aortic ischemia, 48 hours reperfusion, cited from earlier work
# [6] = system: PARP-1; details: agent alone; cited from earlier work
# [7] = system: vascular smooth muscle cells in tumors; details: cited from earlier work
# T1 sequence (P09874 whole entry): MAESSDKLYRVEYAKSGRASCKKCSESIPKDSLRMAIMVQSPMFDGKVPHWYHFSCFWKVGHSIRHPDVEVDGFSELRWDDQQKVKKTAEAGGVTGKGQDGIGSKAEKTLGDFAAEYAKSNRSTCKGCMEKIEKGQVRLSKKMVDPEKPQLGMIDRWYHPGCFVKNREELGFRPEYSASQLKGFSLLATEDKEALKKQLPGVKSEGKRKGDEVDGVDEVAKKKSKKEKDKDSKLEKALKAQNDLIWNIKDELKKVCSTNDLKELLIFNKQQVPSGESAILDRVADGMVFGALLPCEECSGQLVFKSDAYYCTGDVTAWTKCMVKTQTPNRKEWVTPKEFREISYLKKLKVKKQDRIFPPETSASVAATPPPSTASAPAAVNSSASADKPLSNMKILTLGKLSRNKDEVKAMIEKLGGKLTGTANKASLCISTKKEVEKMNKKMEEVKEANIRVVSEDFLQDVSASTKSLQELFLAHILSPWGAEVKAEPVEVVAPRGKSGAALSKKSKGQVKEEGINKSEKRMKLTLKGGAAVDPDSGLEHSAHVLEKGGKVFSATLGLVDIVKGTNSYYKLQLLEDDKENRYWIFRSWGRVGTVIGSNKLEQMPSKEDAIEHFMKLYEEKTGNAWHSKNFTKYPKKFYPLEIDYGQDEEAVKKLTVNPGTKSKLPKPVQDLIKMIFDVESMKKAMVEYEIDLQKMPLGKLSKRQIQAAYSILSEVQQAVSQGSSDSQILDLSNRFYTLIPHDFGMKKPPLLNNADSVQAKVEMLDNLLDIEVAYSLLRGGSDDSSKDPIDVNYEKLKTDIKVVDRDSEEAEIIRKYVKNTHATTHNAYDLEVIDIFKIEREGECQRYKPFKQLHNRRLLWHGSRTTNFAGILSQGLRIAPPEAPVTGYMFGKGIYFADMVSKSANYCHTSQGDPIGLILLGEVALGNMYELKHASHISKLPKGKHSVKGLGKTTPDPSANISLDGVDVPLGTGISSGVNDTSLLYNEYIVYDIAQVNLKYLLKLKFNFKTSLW
Structure (SMILES),IC50 [2] [µM],also measured
"Oc1cccc2c(O)nccc12 [1,5-dihroxyisoquinoline]",,"kidney function (plasma urea, plasma creatinine, glomerular filtration rate) [1]: improved kidney function"
"NC(=O)c1cccc2[nH]c(C3NCCc4ccccc43)nc12 (stereo not shown) [2-(1,2,3,4-Tetrahydroisoquinolin-1-yl)-1H-benzo[d]imidazole-4-carboxamide]",< 0.5,
"NC(=O)c1cccc2[nH]c(C3Cc4ccccc4CN3)nc12 (stereo not shown) [2-(1,2,3,4-Tetrahydroisoquinolin-3-yl)-1H-benzo[d]imidazole-4-carboxamide]",< 0.5,
"NC(=O)c1cccc2[nH]c(C3CCc4ccccc4N3)nc12 (stereo not shown) [2-(1,2,3,4-Tetrahydroquinolin-2-yl)-1H-benzo[d]imidazole-4-carboxamide]",< 0.5,
"CC1(c2nc3c(C(N)=O)cccc3[nH]2)Cc2ccccc2CN1 (stereo not shown) [2-(3-Methyl-1,2,3,4-tetrahydroisoquinolin-3-yl)-1H-benzo[d]imidazole-4-carboxamide]",< 0.5,
NC(=O)c1cccc(N)c1 [3-aminobenzamide],,"kidney function (plasma urea, plasma creatinine, glomerular filtration rate) [1]: improved kidney function"
Nc1cccc2cnccc12 [5-aminoisoquinoline],,leukocyte-endothelial interaction [3]: decreased leukocyte-endothelial interaction; liver function [3]: improved liver function; liver injury [3]: decreased liver injury
"Nc1ccc2oc(=O)ccc2c1I [5-iodo-6-amino-1,2-benzopyrone]",,severity of the disease as assessed by histological parameters [4]: reduced the severity of the disease
CN(C)CC(=O)Nc1ccc2[nH]c(=O)c3ccccc3c2c1 [PJ34],,fibrinolysis stimulated by the ischemia-reperfusion [5]: no apparent affect; steady state levels of a marker for neutrophil infiltration [5]: decrease steady state levels; renal mitochondrial activity ([5]; treated 1 hour before and immediately after ischemia): preserve renal mitochondrial activity
CC[C@@]1(O)C(=O)OCc2c1cc1n(c2=O)Cc2cc3ccccc3nc2-1 [camptothecin],,activation of PARP-1 [6]: four-fold activation
COc1cc([C@@H]2c3cc4c(cc3[C@@H](O[C@@H]3O[C@@H]5CO[C@@H](C)O[C@H]5[C@H](O)[C@H]3O)[C@H]3COC(=O)[C@H]23)OCO4)cc(OC)c1O [etoposide],,activation of PARP-1 [6]: failed to induce PARP-1
NC(=O)c1cccnc1 [nicotinamide],,contraction of vascular smooth muscle cells in tumors [7]: inhibit contraction
"CC(C)(C)OC(=O)Nc1ccc2c(c1)CN(C(=O)OC(C)(C)C)C(c1nc3c(C(N)=O)cccc3[nH]1)C2 (stereo not shown) [tert-Butyl 7-((tert-butoxycarbonyl)amino)-3-(4-carbamoyl-1H-benzo[d]imidazol-2-yl)-3,4-dihydroisoquinoline-2(1H)-carboxylate]",> 2,

# Second part, led by results:
IC50 [2] [µM],Structure (SMILES),also measured
< 0.5,"NC(=O)c1cccc2[nH]c(C3Cc4ccc(N)cc4CN3)nc12 (stereo not shown) [2-(7-Amino-1,2,3,4-tetrahydroisoquinolin-3-yl)-1H-benzo[d]imidazole-4-carboxamide]",
< 0.5,NC(=O)c1cccc2[nH]c(C3Cc4ccccc4N3)nc12 (stereo not shown) [2-(Indolin-2yl)-1H-benzo[d]imidazole-4-carboxamide],
< 0.5,NC(=O)c1cccc2[nH]c(C3NCc4ccccc43)nc12 (stereo not shown) [2-(Isoindolin-1-yl)-1H-benzo[d]imidazole-4-carboxamide],
> 2,"NC(=O)c1cccc2[nH]c(C3c4ccccc4CCN3C(=O)OCc3ccccc3)nc12 (stereo not shown) [Benzyl 1-(4-carbamoyl-1H-benzo[d]imidazol-2-yl)-3,4-dihydroisoquinoline-2(1H)-carboxylate]",
> 2,NC(=O)c1cccc2[nH]c(C3c4ccccc4CN3C(=O)OCc3ccccc3)nc12 (stereo not shown) [Benzyl 1-(4-carbamoyl-1H-benzo[d]imidazol-2-yl)isoindoline-2-carboxylate],
> 2,NC(=O)c1cccc2[nH]c(C3Cc4ccccc4N3C(=O)OCc3ccccc3)nc12 (stereo not shown) [Benzyl 2-(4-carbamoyl-1H-benzo[d]imidazol-2-yl)indoline-1-carboxylate],
0.5 to 2,"NC(=O)c1cccc2[nH]c(C3Cc4ccccc4CN3C(=O)OCc3ccccc3)nc12 (stereo not shown) [Benzyl 3-(4-carbamoyl-1H-benzo[d]imidazol-2-yl)-3,4-dihydroisoquinoline-2-(1H)-carboxylate]",
> 2,"CC1(c2nc3c(C(N)=O)cccc3[nH]2)Cc2ccccc2CN1C(=O)OCc1ccccc1 (stereo not shown) [Benzyl 3-(4-carbamoyl-1H-benzo[d]imidazol-2-yl)-3-methyl-3,4-dihydroisoquinoline-2(1H)-carboxylate]",
> 2,"CC(C)(C)OC(=O)N1c2ccccc2CCC1c1nc2c(C(N)=O)cccc2[nH]1 (stereo not shown) [tert-Butyl 2-(4-carbamoyl-1H-benzo[d]imidazol-2-yl)-3,4-dihydroquinoline-1(2H)-carboxylate]",
> 2,"CC(C)(C)OC(=O)N1Cc2cc(N)ccc2CC1c1nc2c(C(N)=O)cccc2[nH]1 (stereo not shown) [tert-Butyl 7-amino-3-(4-carbamoyl-1H-benzo[d]imidazol-2-yl)-3,4-dihydroisoquinoline-2(1H)-carboxylate]",
> 2,"CC(C)(C)OC(=O)Nc1ccc2c(c1)CNC(c1nc3c(C(N)=O)cccc3[nH]1)C2 (stereo not shown) [tert-Butyl (3-(4-carbamoyl-1H-benzo[d]imidazol-2-yl)-1,2,3,4-tetrahydroisoquinolin-7-yl)carbamates]",
